Among the data in ChEMBL document CHEMBL1130644, “Synthesis of C-ring aromatic taxoids and evaluation of their multi-drug resistance reversing activity” (1998) are Activity values, retold here.

Type in all cases: functional, Homo sapiens
A short description of test [1]: Compound was evaluated for enhancing effect on vincristine accumulation in ovarian MDR cancer cells (2780AD) at concentration of 1.0 ug/mL.
Test [2] in a line: Compound was evaluated for enhancing effect on vincristine accumulation in ovarian MDR cancer cells (2780AD) at concentration of 10 ug/mL.
Test [3] is described as follows: 62 Compound was evaluated for enhancing effect on vincristine accumulation in ovarian MDR cancer cells (2780AD) at concentration of 1.0 ug/mL.

For `COc1cccc2c1[C@H](O)[C@]1(O)CC(=O)C(C)=C([C@@H](Sc3ccccc3)[C@@H]2OCCO)C1(C)C`, the Activity was 112% in test [1] and 171% in test [2].
For `COc1cccc2c1[C@H](OCc1ccccc1)[C@]1(O)CC(=O)C(C)=C([C@@H](Sc3ccccc3)[C@@H]2OCCOCc2ccccc2)C1(C)C`, the results for the Activity in test [1] and in test [2] were 106% and 211%, respectively.
In the case of `COc1cccc2c1[C@H](O)[C@]1(O)CC(=O)C(C)=C(C[C@@H]2OCCO)C1(C)C`, the Activity in test [1] was 111%; in test [2] it was 124%.
With `CC1=C2[C@@H](Sc3ccccc3)[C@H](OCCOCc3ccccc3)c3cccc(O)c3[C@H](OCc3ccccc3)[C@](O)(CC1=O)C2(C)C`, the Activity in test [1] was 106%; in test [2], 142%.
On to `COc1cccc2c1[C@H](O)[C@]1(O)CC(=O)C(C)=C([C@@H](Sc3ccccc3)[C@@H]2OCCBr)C1(C)C`, for which the Activity in test [1] is on record as 93%; in test [2] it was 166%.
For the compound `COc1cccc2c1[C@H](O)[C@]1(O)CC(O)C(C)=C([C@@H](Sc3ccccc3)[C@@H]2OCCO)C1(C)C` (stereo partly specified), the Activity in test [3] was determined as 109%; in test [2], 144%.
For the compound `CC1=C2[C@@H](Sc3ccccc3)[C@H](OCCO)c3cccc(O)c3[C@H](OCc3ccccc3)[C@](O)(CC1=O)C2(C)C`, the figures for the Activity in test [1] and in test [2] were 238% and 569%, respectively.
Taken in the same sequence, the figures for `COc1cccc2c1[C@H](O)[C@]1(O)CC(=O)C(C)=C([C@@H](Sc3ccccc3)[C@@H]2OCCOCc2ccccc2)C1(C)C` were 140% and 256%.
